Laboratory results taken from patent US20200179392A1, “Idelalisib for Treating Proliferative Vitreoretinopathy and Abnormal Intraocular Neovascularization” (priority 2016, published 2020).

System: PDGFRβ/PI3Kδ/Akt
Test: Western blot of vitreous-induced Akt activation restored by mutant PDGFRβ (βΔx) in PDGFRβ-silent RPEM cells
Assay type: cell-based, human
Settings: PDGFRβ-silent RPEM cells expressing βΔx; NAC 10 mM, SU6656 1 μM
Method: 2B. Serum-deprived RPEM cells as defined were treated with RV or PDGF-B for 30 minutes and their lysates were analyzed with indicated antibodies. This is a representative of three independent experiments. βΔx: a truncated PDGFRβ without the PDGF-binding domain. NAC: N-acetyl-cysteine (10 mM), a scavenger of reactive oxygen species (ROS), SU: SU6656 (1 μM), a specific inhibitor of Src family kinases (SFKs).
To make the retrovirus, the pLXSHD-PDGFRβΔx construct was transfected into 293GPG cells with reagent (Lipofectamine 2000; Invitrogen). Virus containing medium was collected for 5 days and then was concentrated (25,000g, 90 minutes, 4° C.). RPEM cells deficient for PDGFRβ were infected by incubation with the concentrated retrovirus in DMEM supplemented with 10% FBS and 8 μg/mL polybrene (hexadimethrine bromide; Sigma) for 24 hours. Successfully infected cells were selected in histidine-free DMEM supplemented with 2 mM L-histidinol dihydrochoride (Sigma, St. Louis, Mo.). Resultant cell lines were termed RPEMPAx; the level of the truncated PDGFRPAx was determined by Western blot analysis with an antiPDGFRβ antibody that recognizes the receptor's intracellular domain.
Cells grown to 90% confluence in wells of 24-well plates were serum starved for 24 hours, and then treated with appropriated agents. […] Signal intensity was determined by densitometry using NIH imageJ software^24, 44, 50.

CC(=O)N[C@@H](CS)C(=O)O [N-acetyl-cysteine]
effect on restoration of vitreous-induced activation of Akt by mutant PDGFRβ: prevented

CN(C)S(=O)(=O)c1ccc2c(c1)/C(=C/c1cc3c([nH]1)CCCC3)C(=O)N2 [SU6656]
effect on restoration of vitreous-induced activation of Akt by mutant PDGFRβ: prevented
